Results from USRE40086E1, “Method for treating bacterial infection with novel 7-substituted-9-substituted amino 6-demethyl-6-deoxytetracyclines” (Wyeth Holdings Corporation, priority 1991, dated 2008).
Converted amounts (≈) assume the structure as drawn.

Key:
Type in all cases: cell-based
[1] = system: S. aureus UBMS 88-5 (tetM); assay: MIC, agar dilution; details: for Antibacterial activity (MIC): S. aureus UBMS 88-5 TetM, Table IA, unit assumed
[2] = system: S. aureus UBMS 88-4 (Sensitive); assay: MIC, agar dilution; details: for Antibacterial activity (MIC): S. aureus UBMS 88-4, Table IA, unit assumed
[3] = system: S. aureus UBMS 90-1 (tetM); assay: MIC, agar dilution; details: for Antibacterial activity (MIC): S. aureus UBMS 90-1 TetM, Table IA, unit assumed
[4] = system: S. aureus UBMS 90-2 (tetM); assay: MIC, agar dilution; details: for Antibacterial activity (MIC): S. aureus UBMS 90-2 TetM, Table IA, unit assumed
[5] = system: S. aureus UBMS 90-3 (Sensitive); assay: MIC, agar dilution; details: for Antibacterial activity (MIC): S. aureus UBMS 90-3, Table IA, unit assumed
[6] = system: S. aureus UBMS 88-7 (tetK); assay: MIC, agar dilution; details: for Antibacterial activity (MIC): S. aureus UBMS 88-7 TetK, Table IA, unit assumed
[7] = system: S. aureus IVES 2943 (meth. resistant); assay: MIC, agar dilution; details: for Antibacterial activity (MIC): S. aureus IVES 2943, Table IA, unit assumed
[8] = system: S. aureus IVES 1983 (meth. resistant); assay: MIC, agar dilution; details: for Antibacterial activity (MIC): S. aureus IVES 1983, Table IA, unit assumed
[9] = system: S. aureus ATCC 29213 (Sensitive); assay: MIC, agar dilution; details: for Antibacterial activity (MIC): S. aureus ATCC 29213, Table IA, unit assumed
[10] = system: S. aureus Smith (Sensitive); assay: MIC, agar dilution; details: for Antibacterial activity (MIC): S. aureus SMITH (MP), Table IA, unit assumed
[11] = system: S. haemolyticus AVAH 88-3; assay: MIC, agar dilution; details: for Antibacterial activity (MIC): S. hemolyticus AVHAH 88-3, Table IA, unit assumed
E. faecalis 12201 = assay: MIC, agar dilution; details: for Antibacterial activity (MIC): Enterococcus 12201, Table IA, unit assumed
E. faecalis ATCC 29212 = assay: MIC, agar dilution; details: E. faecalis ATCC 29212; for Antibacterial activity (MIC): Table IA, unit assumed
E. coli UBMS 88-1 (tetB) = assay: MIC, agar dilution; details: for Antibacterial activity (MIC): E. coli UBMS 88-1 TetB, Table IA, unit assumed
E. coli UBMS 89-1 (tetM) = assay: MIC, agar dilution; details: for Antibacterial activity (MIC): E. coli UBMS 89-1 TetM, Table IA, unit assumed
[12] = system: E. coli UBMS 89-2 (Sensitive); assay: MIC, agar dilution; details: for Antibacterial activity (MIC): E. coli UBMS 89-2 Tet Sens., Table IA, unit assumed
E. coli ATCC 25922 = assay: MIC, agar dilution; details: E. coli ATCC 25922; for Antibacterial activity (MIC): Table IA, unit assumed
E. coli J3272 Tet sens. = assay: MIC, agar dilution (Table IA); details: unit assumed
E. coli MC4100 TetB = assay: MIC, agar dilution (Table IA); details: unit assumed
E. coli PRP1 TetA = assay: MIC, agar dilution (Table IA); details: unit assumed
E. coli J3272 TetC = assay: MIC, agar dilution (Table IA); details: unit assumed
E. coli J2175 = assay: MIC, agar dilution (Table IA); details: unit assumed
E. coli BAJ9003 = assay: MIC, agar dilution (Table IA); details: unit assumed
E. coli UBMS 90-5 = assay: MIC, agar dilution (Table IA); details: unit assumed
E. coli #311 (MP) = assay: MIC, agar dilution (Table IA); details: unit assumed
E. coli J3272 TetD = assay: MIC, agar dilution (Table IA); details: unit assumed
S. mariescens FDOR 8733 = assay: MIC, agar dilution (Table IA); details: unit assumed
[13] = system: X. maltophilia NEMC 87210; assay: MIC, agar dilution (Table IA); details: unit assumed
[14] = system: Ps. acruginosa ATCC 27853; assay: MIC, agar dilution (Table IA); details: unit assumed
S. aureus NEMC 8769/89-4 = assay: MIC, agar dilution (Table IA); details: unit assumed
S. aureus ROSE (MP) = assay: MIC, agar dilution (Table IA); details: unit assumed
[15] = system: E. coli UBMS 88-2 (Sensitive); assay: MIC, agar dilution; details: E. coli UBMS 88-2 (Sensitive)

| SMILES | Antibacterial activity (MIC) [1] [µg/mL] | Antibacterial activity (MIC) [2] [µg/mL] | Antibacterial activity (MIC) [3] [µg/mL] | Antibacterial activity (MIC) [4] [µg/mL] | Antibacterial activity (MIC) [5] [µg/mL] | Antibacterial activity (MIC) [6] [µg/mL] | Antibacterial activity (MIC) [7] [µg/mL] | Antibacterial activity (MIC) [8] [µg/mL] | Antibacterial activity (MIC) [9] [µg/mL] | Antibacterial activity (MIC) [10] [µg/mL] | Antibacterial activity (MIC) [11] [µg/mL] | Antibacterial activity (MIC) (E. faecalis 12201) [µg/mL] | Antibacterial activity (MIC) (E. faecalis ATCC 29212) [µg/mL] | Antibacterial activity (MIC) (E. coli UBMS 88-1 (tetB)) [µg/mL] | Antibacterial activity (MIC) (E. coli UBMS 89-1 (tetM)) [µg/mL] | Antibacterial activity (MIC) [12] [µg/mL] | Antibacterial activity (MIC) (E. coli ATCC 25922) [µg/mL] | Antibacterial activity (MIC) (E. coli J3272 Tet sens.) [µg/mL] | Antibacterial activity (MIC) (E. coli MC4100 TetB) [µg/mL] | Antibacterial activity (MIC) (E. coli PRP1 TetA) [µg/mL] | also measured |
| --- | --- | --- | --- | --- | --- | --- | --- | --- | --- | --- | --- | --- | --- | --- | --- | --- | --- | --- | --- | --- | --- |
| CN(C)c1cc(NC(=O)CBr)c(O)c2c1CC1CC3[C@H](N(C)C)C(O)=C(C(N)=O)C(=O)[C@@]3(O)C(O)=C1C2=O.Cl.Cl (stereo partly drawn) [III, [4S-(4alpha,12aalpha)]-9-[(Bromoacetyl)amino)-4,7-bis(dimethylamino)-1,4,4a,5,5a,6,11,12a-octahydro-3,10,12,12a-tetrahydroxy-1,11-dioxo-2-naphthacenecarboxamide dihydrochloride] | 1 | 0.5 | 1 | 0.5 | 0.5 | 2 | 4 | 4 | 0.5 | 0.5 | 2 | 1 | 0.5 | > 32 | 4 | 32 | 16 | 16 | > 32 | > 32 | Antibacterial activity (MIC) (E. coli J3272 TetC): > 32 µg/mL; Antibacterial activity (MIC) (E. coli J2175): 32 µg/mL; Antibacterial activity (MIC) (E. coli BAJ9003): 0.25 µg/mL; Antibacterial activity (MIC) (E. coli UBMS 90-5): 16 µg/mL; Antibacterial activity (MIC) (E. coli #311 (MP)): 8 µg/mL; Antibacterial activity (MIC) (E. coli J3272 TetD): 32 µg/mL; Antibacterial activity (MIC) (S. mariescens FDOR 8733): > 32 µg/mL; Antibacterial activity (MIC) [13]: 4 µg/mL; Antibacterial activity (MIC) [14]: > 32 µg/mL; Antibacterial activity (MIC) (S. aureus NEMC 8769/89-4): 0.12 µg/mL; Antibacterial activity (MIC) (S. aureus ROSE (MP)): 8 µg/mL |
| CN(C)c1cc(NC(=O)CN2CCOCC2)c(O)c2c1CC1CC3[C@H](N(C)C)C(O)=C(C(N)=O)C(=O)[C@@]3(O)C(O)=C1C2=O.Cl.Cl (stereo partly drawn) [NN, [7S-(7alpha,10aalpha)]-N-[9-(Aminocarbonyl)-4,7-bis(dimethylamino)-5,5a,6,6a,7,10,10a,12-octahydro-1,8,10a,11-tetrahydroxy-10,12-dioxo-2-naphthacenyl)-4-morpholineacetamide dihydrochloride] | 4 | 2 | 4 | 2 | 2 | 32 | > 32 | > 32 | 2 | 2 | 32 | 2 | 2 | > 32 | 32 | > 32 | > 32 | > 32 | > 32 | > 32 | Antibacterial activity (MIC) (E. coli J3272 TetC): > 32 µg/mL; Antibacterial activity (MIC) (E. coli J2175): > 32 µg/mL; Antibacterial activity (MIC) (E. coli BAJ9003): 0.5 µg/mL; Antibacterial activity (MIC) (E. coli UBMS 90-5): > 32 µg/mL; Antibacterial activity (MIC) (E. coli #311 (MP)): > 32 µg/mL; Antibacterial activity (MIC) (E. coli J3272 TetD): 32 µg/mL; Antibacterial activity (MIC) (S. mariescens FDOR 8733): > 32 µg/mL; Antibacterial activity (MIC) [13]: 32 µg/mL; Antibacterial activity (MIC) [14]: > 32 µg/mL; Antibacterial activity (MIC) (S. aureus NEMC 8769/89-4): 0.5 µg/mL; Antibacterial activity (MIC) (S. aureus ROSE (MP)): > 32 µg/mL |
| CN(C)c1cc(NC(=O)CO)c(O)c2c1CC1CC3C(N(C)C)C(O)=C(C(N)=O)C(=O)C3(O)C(O)=C1C2=O (centres unmarked) [L, 7-(Dimethylamino)-9-[(hydroxyacetyl)amino]-6-demethyl-6-deoxytetracycline] | – | – | – | – | – | – | – | – | – | – | – | – | – | – | – | – | – | – | – | – | MIC ([1]; S. aureus UBMS 88-5 (tetM)): 4 µg/mL (≈ 7.54 µM); MIC ([2]; S. aureus UBMS 88-4 (Sensitive)): 4 µg/mL (≈ 7.54 µM); MIC ([3]; S. aureus UBMS 90-1 (tetM)): 8 µg/mL (≈ 15.1 µM); MIC ([4]; S. aureus UBMS 90-2 (tetM)): 2 µg/mL (≈ 3.77 µM); MIC ([5]; S. aureus UBMS 90-3 (Sensitive)): 1 µg/mL (≈ 1.88 µM); MIC ([6]; S. aureus UBMS 88-7 (tetK)): >32 µg/mL; MIC ([7]; S. aureus IVES 2943 (meth. resistant)): >32 µg/mL; MIC ([8]; S. aureus IVES 1983 (meth. resistant)): >32 µg/mL; MIC ([9]; S. aureus ATCC 29213 (Sensitive)): 0.5 µg/mL (≈ 0.942 µM); MIC ([10]; S. aureus Smith (Sensitive)): 0.5 µg/mL (≈ 0.942 µM); MIC ([11]; S. haemolyticus AVAH 88-3): 16 µg/mL (≈ 30.2 µM); MIC (E. faecalis 12201; E. faecalis 12201): 4 µg/mL (≈ 7.54 µM); MIC (E. faecalis ATCC 29212): 2 µg/mL (≈ 3.77 µM); MIC (E. coli UBMS 88-1 (tetB); E. coli UBMS 88-1 (tetB)): >32 µg/mL; MIC [15]: >32 µg/mL; MIC (E. coli UBMS 89-1 (tetM); E. coli UBMS 89-1 (tetM)): >32 µg/mL; MIC ([12]; E. coli UBMS 89-2 (Sensitive)): >32 µg/mL; MIC (E. coli ATCC 25922): 32 µg/mL (≈ 60.3 µM) |
